We go through four compounds from patent US6087366A (The Trustees of Columbia University in the City of New York, priority 1996, dated 2000).

SMILES strings stand for the structures. Like-named read-outs stand apart in the source and are kept apart here. A value given as a limit tells only on which side of the number the result lay.

A short description of series [1]: survival of naive PC12 cells with or without serum. It counts as cell-based, rat. The note with it: rat, naive pc12 cells; serum-containing medium, day 3; read-out: death of naive PC12 cells in the presence of serum. On the procedure:
(§1) For survival experiments, naive or neuronally-differentiated PC12 cells were washed extensively in serum-, NGF-free medium as previously described (6,24) and replated onto collagen-coated 24-well tissue culture dishes at a density of approximately 2×10^5 cells per well. The final volume of medium in each well, including all drugs was 1 ml. To allow time for blockade of DNA synthesis, naive PC12 cells were, in some cases, pretreated with drug for 16 hr prior to serum withdrawal. NGF-treated neuronally-differentiated cells were not pretreated with drug prior to serum deprivation. At appropriate times of culture under the desired conditions, cells were lysed and the numbers of viable cells were determined as previously described (24). The number of intact nuclei was determined by counting in a hemacytometer. All counts were performed in triplicate, and survival data are expressed as a percentage of cells plated on day 0+/-SEM.

The test system of series [2] is naive PC12 cells. Briefly: survival of naive PC12 cells with or without serum. In kind it is cell-based, rat. The note with it: 16 hrs pretreatment, serum withdrawal. On the procedure:
as §1

In the next series the test system is sympathetic neurons. Briefly: rate of protein synthesis ([3H]-leucine incorporation) in sympathetic neurons. It counts as cell-based. The note with it: Rattus norvegicus, Sympathetic neuron. On the procedure: (§2) Neuronally-differentiated PC12 cells and sympathetic neurons were plated on 24-well dishes as described above. After the cultures were pretreated with the appropriate drug for 1 hr, 5 μCi [^3 H]-leucine was added per well and the cells were allowed to incorporate the isotope for 10 hr. The cultures were washed and prepared for scintillation counting as described above for thymidine incorporation. Background levels of radioactivity was determined by treating wells with 5 μg/ml cycloheximide. All experimental points were performed in triplicate and the data are presented relative to untreated control samples as mean+/-SEM.

The test system of series [3] is c-Jun kinase (JNK). Briefly: in vitro solid-phase kinase assay, phosphorylation of GST-c-Jun by activated JNK. In kind it is biochemical, rat. The note with it: for IC50: read-out: IC50, inhibition of GST-c-Jun phosphorylation by activated JNK in vitro. As for the experimental part: (§3) c-Jun kinase (JNK) was affinity purified from PC12 cell extracts with GST-c-Jun (a gift from Dr. Michael Karin, University of California, San Diego) bound to GSH-agarose beads (Sigma) by methods previously described (34). c-Jun kinase activity was determined by an in vitro solid-phase kinase assay as described previously (34). Activated c-Jun kinase was isolated from PC12 cells treated with 0.5 mM sodium arsenite for 30 min. […] GST-c-Jun was resolved on a 8.5% SDS gel and incorporation of ^32 PO4 was quantified by autoradiography and densitometry.

Series [4] relates to neuronally-differentiated PC12 cells. Briefly: rate of protein synthesis ([3H]-leucine incorporation) in neuronally-differentiated PC12 cells. It counts as cell-based, rat. On the procedure: as §2
Another series relates to rat sympathetic neurons. Briefly: survival of rat sympathetic neurons after NGF withdrawal. In kind it is cell-based. The note with it: for survival of NGF-deprived sympathetic neurons: flavopiridol 1 μM, iso-olomoucine 200 μM. On the procedure: The cells were plated in 0.5 ml of medium per well in collagen-coated 24-well dishes at a density of approximately 0.5 ganglia per well. […] To eliminate non-neuronal cells, a mixture of uridine and 5-fluorodeoxyuridine (10 μM each) were added to the cultures on the following day. […] The appropriate drug and/or NGF or anti-mouse NGF antibody (1:200 dilution) was added in a final volume of 0.5 ml of the same medium described above. At appropriate times, the numbers of viable, phase bright neurons were determined by strip counting as previously described (33). All survival data are expressed as relative to the original number of cells counted for each well. All experimental points were performed in triplicate and are reported as mean+/-SEM,

Series [5] concerns neuronally-differentiated PC12 cells. Briefly: survival of neuronally-differentiated PC12 cells after NGF withdrawal. It counts as cell-based, rat. The note with it: for EC (maximal): Rattus norvegicus. As for the experimental part:
as §1

Assay in series [6]: as above
The note with it: rat; post-mitotic neuronally-differentiated PC12 cells, with NGF, day 3; read-out: death in the presence of NGF. In kind it is cell-based, rat. On the procedure:
as §1

In series [7] the test system is c-Jun kinase (JNK). The experiment in a line: c-Jun kinase activation in NGF-deprived neuronally-differentiated PC12 cells. The note with it: flavopiridol 1 μM, olomoucine 200 μM. It counts as cell-based, rat. On the procedure: as §3
A further series deals with GST-ERK1. The note with it: read-out: IC50, inhibition of GST-ERK1 activity in vitro; cited from earlier work.
In another series the test system is cdk1. The note with it: read-out: IC50, inhibition of cdk1 activity; cited from earlier work.
Series [8] concerns naive PC12 cells. Briefly: [3H]-thymidine incorporation by naive PC12 cells. It counts as cell-based, rat. The note with it: compared with olomoucine. As for the experimental part: Naive PC12 cells were plated in collagen-coated 24-well dishes at a density of 4×10^5 per well in RPMI 1640 medium containing 3 μM insulin (Sigma) or 10% horse serum and 5% fetal calf serum. […] The cells were pretreated with the appropriate drug for a period of 16 hr prior to the addition of 1 μCi per well of [^3 H]-thymidine (NEN Products, Dupont). The cells were exposed to thymidine for 1-2 hour and then washed three times with cold PBS. Each well was extracted with 1 ml of 10% TCA at 4° C. for 1 hr, and the insoluble material was solubilized overnight at room temperature with 0.3 ml 1N NaOH. After neutralization with an equal volume of 1 N HCl, the solution was quantified by scintillation counting. The level of background counts was determined by treating cells with 10 μM aphidicolin. All experimental points were performed in triplicate. All data are presented relative to untreated control samples as mean+/-SEM.
(In general: Dividing cells build labelled thymidine or BrdU into new DNA.)

Setting [9] is: neuronally-differentiated PC12 cells.

In general, inhibition refers to the change of the read-out against control, counted positive when it falls. What is called IC50 is the point on the concentration scale where inhibition reaches its midpoint. In the case of `CN1CC[C@H](c2c(O)cc(O)c3c(=O)cc(-c4ccccc4Cl)oc23)[C@H](O)C1` [flavopiridol, (-) cis-5,7-dihydroxy-2-(2-chlorophenyl) -8[4-(3-hydroxy-1-methyl) -piperidinyl]-4H-benzopyran-4-one], the cytotoxicity at 72 h in series [1] was 75%; in [6] it was about 20%. The “survival of serum-deprived naive PC12 cells” value in the series with naive PC12 cells [2] is recorded as “died somewhat more quickly than control cells”. For the same compound, the inhibition at 1 µM is about 25% with sympathetic neurons and about 25% in series [4] (Rattus norvegicus, PC-12). The figures for the “effect on in vitro phosphorylation of GST-c-Jun” value in the series on c-Jun kinase (JNK) [3] (12 μM) and in the series on c-Jun kinase (JNK) [3] (50 μM) were “no effect” and “significantly inhibited phosphorylation”, respectively. For the same compound, the IC50 on c-Jun kinase (JNK) [3] is over 12 µM. The “survival of NGF-deprived sympathetic neurons” value with rat sympathetic neurons is “full survival for at least four days”. The EC (maximal) in series [5] (PC-12, neuronally-differentiated PC12 cells, serum-free medium, read-out: concentration of maximal protection from death induced by NGF withdrawal) was 1 µM. Moreover, in [5] (setting [9]), the “protection from cell death after NGF withdrawal” value was “good maintenance of survival even 5 days after NGF withdrawal”. Further, the “level of JNK activation after NGF deprivation” value in the series with c-Jun kinase (JNK) [7] is “did not decrease the level of JNK activation”.

With `Cn1cnc2c(NCc3ccccc3)nc(NCCO)nc21` [olomoucine, 2-(2-hydroxyethylamino) -6-benzylamino-9-methylpurine], the cytotoxicity at 72 h in series [1] was 75%; in series [6], about 20%. Also, the “survival of serum-deprived naive PC12 cells” value with naive PC12 cells [2] was “died at about the same rate as control cells”. In addition, in the series on sympathetic neurons, the inhibition at 200 µM is about 30%. Besides, the IC50 is about 100 µM at c-Jun kinase (JNK) [3] and 30 µM with GST-ERK1. The “effect on protein synthesis” value in series [4] (PC12 cell cultures, 200 μM) was “no effect”. In addition, the viability at 200 µM in the series with rat sympathetic neurons (Rattus norvegicus, Sympathetic neuron, 168 h, read-out: neurons still viable) is about 75%. The EC (maximal) in series [5] (PC-12, read-out: concentration of maximal protection from death induced by NGF withdrawal) amounted to 200 µM. In the series on c-Jun kinase (JNK) [7], the “level of JNK activation after NGF deprivation” value was “did not decrease the level of JNK activation”.

For `COc1cccc(-c2cc(=O)c3ccccc3o2)c1N` [PD 098059], in [5] (20-100 μM, PC12 cells passaged into serum-free medium with NGF), the NGF-stimulated neurite regeneration result is “effectively suppressed NGF-stimulated neurite regeneration”. Also, the “effect on NGF-promoted survival” value in series [5] (20-100 μM, naive or neuronally-differentiated PC12 cells, serum-free medium with or without NGF) was “neither blocked nor mimicked the capacity of NGF to promote survival”.

As for `Cn1cnc2nc(NCCO)nc(NCc3ccccc3)c21` [iso-olomoucine], in the series on cdk1, the IC50 is over 500 µM. Also, the “survival of NGF-deprived sympathetic neurons” value in the series with rat sympathetic neurons was “ineffective”. Also, in series [5] (setting [9]), the “protection from cell death after NGF withdrawal” value is recorded as “far less effective than olomoucine”. Further, the “inhibition of thymidine incorporation” value in the series with naive PC12 cells [8] was “far less effective than olomoucine”.
